# From patent US20050282755A1, “Compositions having antimicrobial activity and uses thereof” (priority 2004, published 2005)
# Non-standard residues stand in square brackets, D forms with d. Residues, ends and D or L forms follow the SMILES beside them. *: point of attachment. Lauroyl = CCCCCCCCCCCC(=O)*
# How the values were obtained:
# Format in all cases: cell-based
# [1] = tested on: Escherichia coli ATCC 25922; test: MIC, NCCLS M7-A6 broth microdilution (Table 9, no superscript); settings: ATCC 25922
# Method in brief: (§1)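 MIC determined by microdilution in cation-adjusted Mueller Hinton broth after overnight growth at 37° C, defined as the lowest peptide level lacking turbidity.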
# Salmonella dublin (Lane) = test: as above
# Method in brief: as §1
# [2] = tested on: Pseudomonas aeruginosa ATCC 27853; test: as above; settings: ATCC 27853
# Method in brief: as §1
# [3] = tested on: Staphylococcus epidermidis ATCC 12228; test: as above; settings: ATCC 12228
# Method in brief: as §1
# [4] = tested on: Staphylococcus aureus ATCC 29213; test: MIC, NCCLS M7-A6 broth microdilution, cation-adjusted Mueller Hinton broth (Table 9, no superscript); settings: ATCC 29213
# Method in brief: as §1
# [5] = tested on: Propionibacterium acnes ATCC 6919; test: MIC, agar dilution method NCCLS M11-A6, Brucella agar, anaerobic (Table 9, superscript c); settings: ATCC 6919
# Method in brief: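 Agar dilution per NCCLS M11-A6 on Brucella agar; final inoculum 1.5×10^8 CFU/milliliter applied to plates, incubated 48-96 hours at 37° C. under anaerobic (GasPak) conditions. MIC = lowest peptide concentration with no colony growth.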
# [6] = tested on: Candida albicans ATCC 18804; test: MIC in yeasts, NCCLS M27-A2 broth microdilution, RPMI 1640 (Table 9, letter e); settings: ATCC 18804
# Method in brief: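 Broth microdilution per NCCLS M27-A2 in RPMI 1640 with glutamine and phenol red, final inoculum 0.5×10^3–2.5×10^3 CFU/milliliter. Incubated 24 to 48 hours at 37° C; MIC is the lowest peptide concentration with no visible growth.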
Compound,MIC E. coli [1],MIC S. dublin (Salmonella dublin (Lane)),MIC P. aeruginosa [2],MIC S. epidermidis [3],MIC S. aureus [4],MIC P. acnes [5],MIC C. albicans [6]
"CCCCCCCCCCCC(=O)NCCCC[C@@H](NC(=O)[C@@H](CCCNC(=N)N)NC(=O)[C@@H](CCSC)NC(=O)[C@@H](Cc1ccccc1)NC(=O)[C@@H](CC(N)=O)NC(=O)[C@@H](CCCNC(=N)N)NC(=O)[C@@H](C)NC(=O)[C@H](NC(=O)[C@@H](CC(=O)O)NC(=O)[C@@H](CCCNC(=N)N)NC(=O)[C@@H](Cc1c[nH]c2ccccc12)NC(=O)[C@@H](CCCNC(=N)N)NC(=O)[C@@H](CO)NC(=O)[C@H](N)CCCNC(=N)N)C(C)C)C(N)=O [Peptide 200, H2N-rsrwrdvarnfmrk(Lauryl)-NH2] (H-[dR][dS][dR][dW][dR][dD][dV][dA][dR][dN][dF][dM][dR][dK](Lauroyl)-NH2)",4 µg/mL,8 µg/mL,4 µg/mL,1 µg/mL,2 µg/mL,8c ug/mL,8e ug/mL
"CCCCCCCCCCCC(=O)N[C@H](CCCNC(=N)N)C(=O)N[C@H](CO)C(=O)N[C@H](CCCNC(=N)N)C(=O)N[C@H](C)C(=O)N[C@H](CCCNC(=N)N)C(=O)N[C@H](CC(=O)O)C(=O)N[C@@H](C(=O)N[C@H](C)C(=O)N[C@H](CCCNC(=N)N)C(=O)N[C@H](CC(N)=O)C(=O)N[C@H](Cc1ccccc1)C(=O)N[C@H](CCSC)C(=O)N[C@H](CCCNC(=N)N)C(N)=O)C(C)C [Peptide 239, Lauryl-rsrardvarnfmr-NH2] (Lauroyl-[dR][dS][dR][dA][dR][dD][dV][dA][dR][dN][dF][dM][dR]-NH2)",16 µg/mL,64 µg/mL,32 µg/mL,4 µg/mL,16 µg/mL,8c ug/mL,64e ug/mL
"CCCCCCCCCCCC(=O)N[C@@H](CCCNC(=N)N)C(=O)N[C@@H](CO)C(=O)N[C@@H](CCCNC(=N)N)C(=O)N[C@@H](Cc1c[nH]c2ccccc12)C(=O)N[C@@H](CCCNC(=N)N)C(=O)N[C@@H](CC(=O)O)C(=O)N[C@H](C(=O)N[C@@H](C)C(=O)N[C@@H](CCCNC(=N)N)C(=O)N[C@@H](CC(N)=O)C(=O)N[C@@H](Cc1ccccc1)C(N)=O)C(C)C [Peptide 99, Lauryl-RSRWRDVARNF-NH2] (Lauroyl-RSRWRDVARNF-NH2)",32 µg/mL,>64 µg/mL,>64 µg/mL,4 µg/mL,4 µg/mL,>64c ug/mL,32e ug/mL
"CCCCCCCCCCCC(=O)N[C@@H](CCCNC(=N)N)C(=O)N[C@@H](CO)C(=O)N[C@@H](CCCNC(=N)N)C(=O)N[C@@H](Cc1c[nH]c2ccccc12)C(=O)N[C@@H](CCCNC(=N)N)C(=O)N[C@@H](CC(=O)O)C(=O)N[C@H](C(=O)N[C@@H](C)C(=O)N[C@@H](CCCNC(=N)N)C(=O)N[C@@H](CC(N)=O)C(=O)N[C@@H](Cc1ccccc1)C(=O)N[C@@H](C)C(=O)N[C@@H](CCCNC(=N)N)C(N)=O)C(C)C [Peptide 97, Lauryl-RSRWRDVARNFAR-NH2] (Lauroyl-RSRWRDVARNFAR-NH2)",32 µg/mL,32 µg/mL,32 µg/mL,2 µg/mL,16 µg/mL,64c ug/mL,8e ug/mL
"CCCCCCCCCCCC(=O)N[C@@H](CCCNC(=N)N)C(=O)N[C@H](CO)C(=O)N[C@@H](CCCNC(=N)N)C(=O)N[C@H](Cc1c[nH]c2ccccc12)C(=O)N[C@@H](CCCNC(=N)N)C(=O)N[C@H](CC(=O)O)C(=O)N[C@@H](C(=O)N[C@H](C)C(=O)N[C@@H](CCCNC(=N)N)C(=O)N[C@H](CC(N)=O)C(=O)N[C@H](Cc1ccccc1)C(=O)N[C@H](CCSC)C(=O)N[C@@H](CCCNC(=N)N)C(N)=O)C(C)C [Peptide 158, Lauryl-RsRwRdvaRnfmR-NH2] (Lauroyl-R[dS]R[dW]R[dD][dV][dA]R[dN][dF][dM]R-NH2)",16 µg/mL,16 µg/mL,4 µg/mL,2 µg/mL,8 µg/mL,8c ug/mL,32e ug/mL
